How the values were obtained:
Experiment in all cases: KINOMEscan competition binding
Settings in all cases: compound 10.0 µM
LTK (human) = LTK (human) (UniProt P29376)
STK16 (human) = STK16 (human) (UniProt O75716)
BMPR1B (human) = BMPR1B (human) (UniProt O00238)
TTK (human) = TTK (human) (UniProt P33981)
PDGFRA (human) = PDGFRA (human) (UniProt P16234)
MAPK3 (human) = MAPK3 (human) (UniProt P27361)
PIK3C2B (human) = PIK3C2B (human) (UniProt O00750)
GSK3B (human) = GSK3B (human) (UniProt P49841)
CDK17 (human) = CDK17 (human) (UniProt Q00537)
EPHA1 (human) = EPHA1 (human) (UniProt P21709)
DAPK2 (human) = DAPK2 (human) (UniProt Q9UIK4)
Sequence of DAPK2 (human) (Q9UIK4 whole entry, looked up): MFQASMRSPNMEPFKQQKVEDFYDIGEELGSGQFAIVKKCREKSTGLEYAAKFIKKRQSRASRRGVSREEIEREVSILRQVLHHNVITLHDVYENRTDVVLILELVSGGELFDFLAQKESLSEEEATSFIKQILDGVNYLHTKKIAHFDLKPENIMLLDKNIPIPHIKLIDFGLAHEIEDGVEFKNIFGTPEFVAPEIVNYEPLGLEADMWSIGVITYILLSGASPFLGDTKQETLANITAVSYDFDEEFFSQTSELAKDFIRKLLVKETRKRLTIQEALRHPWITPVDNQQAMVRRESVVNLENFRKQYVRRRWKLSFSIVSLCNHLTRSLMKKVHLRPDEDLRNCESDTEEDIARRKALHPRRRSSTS

NEK2 (human) = NEK2 (human) (UniProt P51955)
CAMK2G (human) = CAMK2G (human) (UniProt Q13555)
CHEK2 (human) = CHEK2 (human) (UniProt O96017)
AURKC (human) = AURKC (human) (UniProt Q9UQB9)
ULK3 (human) = ULK3 (human) (UniProt Q6PHR2)
WEE1 (human) = WEE1 (human) (UniProt P30291)
MARK1 (human) = MARK1 (human) (UniProt Q9P0L2)
CDK3 (human) = CDK3 (human) (UniProt Q00526)
EPHA3 (human) = EPHA3 (human) (UniProt P29320)
PIM3 (human) = PIM3 (human) (UniProt Q86V86)
STK11 (human) = STK11 (human) (UniProt Q15831)
SRPK1 (human) = SRPK1 (human) (UniProt Q96SB4)
TEK (human) = TEK (human) (UniProt Q02763)
[1] = system: EGFR (human), P00533 [747-751 del / S ins]
EPHA2 (human) = EPHA2 (human) (UniProt P29317)
DAPK1 (human) = DAPK1 (human) (UniProt P53355)
EPHB3 (human) = EPHB3 (human) (UniProt P54753)
FGFR1 (human) = FGFR1 (human) (UniProt P11362)
Sequence of FGFR1 (human) (P11362 whole entry, looked up): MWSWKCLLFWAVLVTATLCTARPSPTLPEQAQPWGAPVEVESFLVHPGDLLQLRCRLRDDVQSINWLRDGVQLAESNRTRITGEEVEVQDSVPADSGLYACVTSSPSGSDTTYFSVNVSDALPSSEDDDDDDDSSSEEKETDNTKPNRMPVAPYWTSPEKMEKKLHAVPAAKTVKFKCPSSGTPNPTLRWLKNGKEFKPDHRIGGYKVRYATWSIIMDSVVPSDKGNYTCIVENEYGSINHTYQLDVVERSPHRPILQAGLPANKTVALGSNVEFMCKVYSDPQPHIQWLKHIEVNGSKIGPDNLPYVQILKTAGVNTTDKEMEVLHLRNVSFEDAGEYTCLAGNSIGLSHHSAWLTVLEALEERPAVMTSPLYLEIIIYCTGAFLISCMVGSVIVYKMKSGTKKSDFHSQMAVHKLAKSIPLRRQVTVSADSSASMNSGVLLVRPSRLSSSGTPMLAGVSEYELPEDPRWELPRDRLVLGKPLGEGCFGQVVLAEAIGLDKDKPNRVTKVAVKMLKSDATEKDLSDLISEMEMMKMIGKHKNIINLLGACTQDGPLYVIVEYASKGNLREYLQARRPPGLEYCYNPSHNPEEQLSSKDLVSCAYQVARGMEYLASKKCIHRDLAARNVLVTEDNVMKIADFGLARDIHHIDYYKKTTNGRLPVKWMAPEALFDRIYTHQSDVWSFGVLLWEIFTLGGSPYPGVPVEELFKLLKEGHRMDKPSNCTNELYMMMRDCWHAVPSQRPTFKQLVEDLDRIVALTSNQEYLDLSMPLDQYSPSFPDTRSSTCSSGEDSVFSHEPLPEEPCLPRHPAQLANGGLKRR

TSSK1B (human) = TSSK1B (human) (UniProt Q9BXA7)
Sequence of TSSK1B (human) (Q9BXA7 whole entry, looked up): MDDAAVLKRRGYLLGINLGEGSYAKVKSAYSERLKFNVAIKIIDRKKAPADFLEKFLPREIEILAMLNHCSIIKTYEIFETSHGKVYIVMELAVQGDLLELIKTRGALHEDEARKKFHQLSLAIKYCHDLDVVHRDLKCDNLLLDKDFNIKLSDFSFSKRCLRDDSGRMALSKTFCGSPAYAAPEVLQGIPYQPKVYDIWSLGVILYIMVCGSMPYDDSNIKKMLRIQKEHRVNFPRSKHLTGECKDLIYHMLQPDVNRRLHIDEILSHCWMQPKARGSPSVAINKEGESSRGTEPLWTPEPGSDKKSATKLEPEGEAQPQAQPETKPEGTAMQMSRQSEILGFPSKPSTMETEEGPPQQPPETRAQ

MAP4K2 (human) = MAP4K2 (human) (UniProt Q12851)
EGFR (human) = EGFR (human) (UniProt P00533)
MKNK1 (human) = MKNK1 (human) (UniProt Q9BUB5)
MAP2K2 (human) = MAP2K2 (human) (UniProt P36507)
AKT1 (human) = AKT1 (human) (UniProt P31749)
Sequence of AKT1 (human) (P31749 whole entry, looked up): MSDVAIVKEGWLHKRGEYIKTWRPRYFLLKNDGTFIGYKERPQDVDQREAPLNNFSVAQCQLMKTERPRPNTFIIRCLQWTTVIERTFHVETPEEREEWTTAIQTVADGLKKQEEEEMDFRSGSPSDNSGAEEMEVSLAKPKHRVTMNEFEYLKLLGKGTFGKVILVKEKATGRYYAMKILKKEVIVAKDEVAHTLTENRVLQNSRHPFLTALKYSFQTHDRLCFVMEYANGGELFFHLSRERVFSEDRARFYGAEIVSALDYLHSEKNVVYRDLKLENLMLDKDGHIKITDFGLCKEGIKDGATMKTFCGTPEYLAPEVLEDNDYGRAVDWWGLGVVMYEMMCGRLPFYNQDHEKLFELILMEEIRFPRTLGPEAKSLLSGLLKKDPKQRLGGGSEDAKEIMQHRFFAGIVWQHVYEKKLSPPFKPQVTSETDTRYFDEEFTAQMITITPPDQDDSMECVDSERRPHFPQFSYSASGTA

PTK6 (human) = PTK6 (human) (UniProt Q13882)
LIMK1 (human) = LIMK1 (human) (UniProt P53667)
CDK5 (human) = CDK5 (human) (UniProt Q00535)
Sequence of CDK5 (human) (Q00535 whole entry, looked up): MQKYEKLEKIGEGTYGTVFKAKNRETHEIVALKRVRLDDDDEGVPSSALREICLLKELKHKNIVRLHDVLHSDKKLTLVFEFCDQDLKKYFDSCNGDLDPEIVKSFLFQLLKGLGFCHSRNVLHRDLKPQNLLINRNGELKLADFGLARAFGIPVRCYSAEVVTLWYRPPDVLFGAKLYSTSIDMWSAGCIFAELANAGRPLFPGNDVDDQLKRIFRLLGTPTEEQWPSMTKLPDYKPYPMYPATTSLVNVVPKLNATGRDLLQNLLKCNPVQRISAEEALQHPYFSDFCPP

KDR (human) = KDR (human) (UniProt P35968)
BMX (human) = BMX (human) (UniProt P51813)
[2] = system: FLT3 (human), P36888 [K663Q]
[3] = system: FLT3 (human), P36888 [ITD]
FGFR4 (human) = FGFR4 (human) (UniProt P22455)

Sequence of PIK3C2B (human) (O00750 whole entry, looked up): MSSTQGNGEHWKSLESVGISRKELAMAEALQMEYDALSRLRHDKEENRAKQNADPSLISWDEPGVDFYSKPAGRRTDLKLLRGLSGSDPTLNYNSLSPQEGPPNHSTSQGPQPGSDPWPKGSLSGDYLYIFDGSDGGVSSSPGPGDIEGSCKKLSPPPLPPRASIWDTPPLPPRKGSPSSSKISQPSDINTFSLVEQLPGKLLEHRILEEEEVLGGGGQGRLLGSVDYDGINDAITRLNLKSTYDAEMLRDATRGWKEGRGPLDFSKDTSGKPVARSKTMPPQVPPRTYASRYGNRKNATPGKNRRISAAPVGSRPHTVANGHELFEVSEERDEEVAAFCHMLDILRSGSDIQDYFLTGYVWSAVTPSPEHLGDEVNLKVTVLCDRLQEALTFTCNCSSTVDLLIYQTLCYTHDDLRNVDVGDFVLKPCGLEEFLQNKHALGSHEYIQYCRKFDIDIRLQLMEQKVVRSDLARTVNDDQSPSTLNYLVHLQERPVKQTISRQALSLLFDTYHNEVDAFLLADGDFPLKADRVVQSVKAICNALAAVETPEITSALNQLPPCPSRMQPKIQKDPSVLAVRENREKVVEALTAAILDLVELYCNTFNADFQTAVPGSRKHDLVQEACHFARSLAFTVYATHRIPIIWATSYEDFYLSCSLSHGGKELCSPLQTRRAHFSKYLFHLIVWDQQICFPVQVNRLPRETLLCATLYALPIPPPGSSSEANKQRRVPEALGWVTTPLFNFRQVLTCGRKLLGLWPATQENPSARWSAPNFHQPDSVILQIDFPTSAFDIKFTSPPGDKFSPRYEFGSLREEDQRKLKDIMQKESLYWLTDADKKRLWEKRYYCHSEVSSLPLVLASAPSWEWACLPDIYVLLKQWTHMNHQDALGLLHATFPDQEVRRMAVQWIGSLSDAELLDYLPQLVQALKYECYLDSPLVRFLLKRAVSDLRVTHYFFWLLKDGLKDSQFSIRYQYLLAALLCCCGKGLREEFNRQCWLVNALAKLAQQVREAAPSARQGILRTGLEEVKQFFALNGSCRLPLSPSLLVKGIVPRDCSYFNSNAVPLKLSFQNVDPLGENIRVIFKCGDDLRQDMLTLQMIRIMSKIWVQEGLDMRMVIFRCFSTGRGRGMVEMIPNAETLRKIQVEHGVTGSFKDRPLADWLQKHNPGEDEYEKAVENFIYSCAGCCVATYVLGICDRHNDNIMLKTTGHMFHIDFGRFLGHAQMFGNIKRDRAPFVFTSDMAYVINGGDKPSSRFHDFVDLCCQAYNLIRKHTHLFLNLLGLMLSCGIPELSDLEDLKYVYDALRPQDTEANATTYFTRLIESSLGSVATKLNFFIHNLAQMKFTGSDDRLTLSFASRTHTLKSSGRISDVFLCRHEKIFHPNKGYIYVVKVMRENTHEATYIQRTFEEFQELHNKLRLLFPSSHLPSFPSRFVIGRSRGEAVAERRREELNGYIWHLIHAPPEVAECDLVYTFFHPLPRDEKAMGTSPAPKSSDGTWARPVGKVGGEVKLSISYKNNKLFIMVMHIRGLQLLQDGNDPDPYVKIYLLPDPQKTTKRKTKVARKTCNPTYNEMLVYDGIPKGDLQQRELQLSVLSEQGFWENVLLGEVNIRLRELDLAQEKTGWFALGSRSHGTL
Sequence of PDGFRA (human) (P16234 whole entry, looked up): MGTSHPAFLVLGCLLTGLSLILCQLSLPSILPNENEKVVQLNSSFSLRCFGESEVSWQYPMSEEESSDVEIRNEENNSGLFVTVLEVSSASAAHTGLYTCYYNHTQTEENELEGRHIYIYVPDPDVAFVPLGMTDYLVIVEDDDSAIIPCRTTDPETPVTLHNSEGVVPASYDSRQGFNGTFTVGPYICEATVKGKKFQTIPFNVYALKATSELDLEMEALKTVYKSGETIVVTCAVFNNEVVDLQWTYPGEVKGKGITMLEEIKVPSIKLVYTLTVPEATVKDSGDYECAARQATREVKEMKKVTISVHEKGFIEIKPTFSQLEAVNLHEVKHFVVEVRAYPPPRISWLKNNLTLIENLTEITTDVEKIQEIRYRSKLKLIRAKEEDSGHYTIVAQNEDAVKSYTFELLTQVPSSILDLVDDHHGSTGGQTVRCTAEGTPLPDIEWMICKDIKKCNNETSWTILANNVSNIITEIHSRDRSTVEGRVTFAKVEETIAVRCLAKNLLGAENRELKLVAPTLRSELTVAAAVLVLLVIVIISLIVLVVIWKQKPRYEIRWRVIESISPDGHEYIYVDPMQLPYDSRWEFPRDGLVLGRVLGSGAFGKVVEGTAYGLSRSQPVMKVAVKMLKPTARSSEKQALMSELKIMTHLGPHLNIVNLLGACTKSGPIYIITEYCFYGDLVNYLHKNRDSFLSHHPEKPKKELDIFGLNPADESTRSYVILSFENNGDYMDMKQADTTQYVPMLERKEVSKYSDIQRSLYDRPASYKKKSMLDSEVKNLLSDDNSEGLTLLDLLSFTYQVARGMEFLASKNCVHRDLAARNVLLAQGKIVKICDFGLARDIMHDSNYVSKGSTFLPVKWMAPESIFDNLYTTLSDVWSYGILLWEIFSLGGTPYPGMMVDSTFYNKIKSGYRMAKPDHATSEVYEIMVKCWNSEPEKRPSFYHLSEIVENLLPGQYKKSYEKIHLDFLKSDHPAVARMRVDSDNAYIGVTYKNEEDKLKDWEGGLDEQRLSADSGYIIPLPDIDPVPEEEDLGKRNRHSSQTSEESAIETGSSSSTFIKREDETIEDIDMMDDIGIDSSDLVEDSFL

## COc1cc(N2CCC(N3CCN(C)CC3)CC2)ccc1Nc1ncc(Cl)c(Nc2ccccc2S(=O)(=O)C(C)C)n1
LTK (human)
  kinase still bound, per cent of control: 0%
STK16 (human)
  kinase still bound, per cent of control: 2.8%
BMPR1B (human)
  kinase still bound, per cent of control: 1.2%
TTK (human)
  kinase still bound, per cent of control: 0%
PDGFRA (human)
  kinase still bound, per cent of control: 0.85%
MAPK3 (human)
  kinase still bound, per cent of control: 0.1%
PIK3C2B (human)
  kinase still bound, per cent of control: 40%
GSK3B (human)
  kinase still bound, per cent of control: 40%
CDK17 (human)
  kinase still bound, per cent of control: 9.9%
EPHA1 (human)
  kinase still bound, per cent of control: 0.15%
DAPK2 (human)
  kinase still bound, per cent of control: 12%
NEK2 (human)
  kinase still bound, per cent of control: 2.5%
CAMK2G (human)
  kinase still bound, per cent of control: 2%
CHEK2 (human)
  kinase still bound, per cent of control: 0%
AURKC (human)
  kinase still bound, per cent of control: 0.1%
ULK3 (human)
  kinase still bound, per cent of control: 0%
WEE1 (human)
  kinase still bound, per cent of control: 17%
MARK1 (human)
  kinase still bound, per cent of control: 0%
CDK3 (human)
  kinase still bound, per cent of control: 40%
EPHA3 (human)
  kinase still bound, per cent of control: 40%
PIM3 (human)
  kinase still bound, per cent of control: 40%
STK11 (human)
  kinase still bound, per cent of control: 40%
SRPK1 (human)
  kinase still bound, per cent of control: 2.2%
TEK (human)
  kinase still bound, per cent of control: 0%
[1]
  kinase still bound, per cent of control: 0.6%
EPHA2 (human)
  kinase still bound, per cent of control: 27%
DAPK1 (human)
  kinase still bound, per cent of control: 6.4%
EPHB3 (human)
  kinase still bound, per cent of control: 18%
FGFR1 (human)
  kinase still bound, per cent of control: 0%
TSSK1B (human)
  kinase still bound, per cent of control: 0%
MAP4K2 (human)
  kinase still bound, per cent of control: 9.4%
EGFR (human)
  kinase still bound, per cent of control: 0.1%
MKNK1 (human)
  kinase still bound, per cent of control: 40%
MAP2K2 (human)
  kinase still bound, per cent of control: 1.8%
AKT1 (human)
  kinase still bound, per cent of control: 40%
PTK6 (human)
  kinase still bound, per cent of control: 0.15%
LIMK1 (human)
  kinase still bound, per cent of control: 2.2%
CDK5 (human)
  kinase still bound, per cent of control: 5.2%
KDR (human)
  kinase still bound, per cent of control: 2.2%

## CCN1CCN(Cc2ccc(NC(=O)c3ccc(C)c(Oc4ccnc5[nH]ccc45)c3)cc2C(F)(F)F)CC1
LTK (human)
  kinase still bound, per cent of control: 1.2%
BMX (human)
  kinase still bound, per cent of control: 2.4%
TTK (human)
  kinase still bound, per cent of control: 24%
PDGFRA (human)
  kinase still bound, per cent of control: 0.6%
CDK17 (human)
  kinase still bound, per cent of control: 0.1%
[2]
  kinase still bound, per cent of control: 0%
[3]
  kinase still bound, per cent of control: 0.7%
ULK3 (human)
  kinase still bound, per cent of control: 0.1%
EPHA3 (human)
  kinase still bound, per cent of control: 3.4%
TEK (human)
  kinase still bound, per cent of control: 0%
[1]
  kinase still bound, per cent of control: 1.1%
EPHA2 (human)
  kinase still bound, per cent of control: 3.1%
FGFR1 (human)
  kinase still bound, per cent of control: 1.7%
FGFR4 (human)
  kinase still bound, per cent of control: 0.45%
MAP4K2 (human)
  kinase still bound, per cent of control: 0.3%
EGFR (human)
  kinase still bound, per cent of control: 5.6%
PTK6 (human)
  kinase still bound, per cent of control: 28%
CDK5 (human)
  kinase still bound, per cent of control: 19%
KDR (human)
  kinase still bound, per cent of control: 1.5%

## CCN1CCN(Cc2ccc(NC(=O)c3ccc(C)c(/C=C/c4cnc(Nc5cc(N6CCNCC6)nc(C)n5)cn4)c3)cc2C(F)(F)F)CC1
LTK (human)
  kinase still bound, per cent of control: 100%
STK16 (human)
  kinase still bound, per cent of control: 100%
BMPR1B (human)
  kinase still bound, per cent of control: 77%
BMX (human)
  kinase still bound, per cent of control: 12%
TTK (human)
  kinase still bound, per cent of control: 85%
PDGFRA (human)
  kinase still bound, per cent of control: 2.8%
MAPK3 (human)
  kinase still bound, per cent of control: 94%
PIK3C2B (human)
  kinase still bound, per cent of control: 79%
GSK3B (human)
  kinase still bound, per cent of control: 100%
CDK17 (human)
  kinase still bound, per cent of control: 60%
EPHA1 (human)
  kinase still bound, per cent of control: 10%
[2]
  kinase still bound, per cent of control: 0.15%
DAPK2 (human)
  kinase still bound, per cent of control: 66%
NEK2 (human)
  kinase still bound, per cent of control: 100%
CAMK2G (human)
  kinase still bound, per cent of control: 100%
[3]
  kinase still bound, per cent of control: 5.6%
CHEK2 (human)
  kinase still bound, per cent of control: 83%
AURKC (human)
  kinase still bound, per cent of control: 45%
ULK3 (human)
  kinase still bound, per cent of control: 1.6%
WEE1 (human)
  kinase still bound, per cent of control: 100%
MARK1 (human)
  kinase still bound, per cent of control: 100%
CDK3 (human)
  kinase still bound, per cent of control: 100%
EPHA3 (human)
  kinase still bound, per cent of control: 4.4%
PIM3 (human)
  kinase still bound, per cent of control: 55%
STK11 (human)
  kinase still bound, per cent of control: 76%
SRPK1 (human)
  kinase still bound, per cent of control: 77%
TEK (human)
  kinase still bound, per cent of control: 0%
[1]
  kinase still bound, per cent of control: 4.6%
EPHA2 (human)
  kinase still bound, per cent of control: 5.4%
DAPK1 (human)
  kinase still bound, per cent of control: 85%
EPHB3 (human)
  kinase still bound, per cent of control: 100%
FGFR1 (human)
  kinase still bound, per cent of control: 1.6%
FGFR4 (human)
  kinase still bound, per cent of control: 34%
TSSK1B (human)
  kinase still bound, per cent of control: 100%
MAP4K2 (human)
  kinase still bound, per cent of control: 0.1%
EGFR (human)
  kinase still bound, per cent of control: 12%
MKNK1 (human)
  kinase still bound, per cent of control: 89%
MAP2K2 (human)
  kinase still bound, per cent of control: 11%
AKT1 (human)
  kinase still bound, per cent of control: 100%
PTK6 (human)
  kinase still bound, per cent of control: 91%
LIMK1 (human)
  kinase still bound, per cent of control: 15%
CDK5 (human)
  kinase still bound, per cent of control: 96%
KDR (human)
  kinase still bound, per cent of control: 37%

## CCOc1cc(N2CCC(N3CCCCC3)CC2)ccc1Nc1nc(Nc2ccccc2S(=O)(=O)C(C)C)c2cn[nH]c2n1
LTK (human)
  kinase still bound, per cent of control: 1.7%
STK16 (human)
  kinase still bound, per cent of control: 76%
BMPR1B (human)
  kinase still bound, per cent of control: 49%
BMX (human)
  kinase still bound, per cent of control: 100%
TTK (human)
  kinase still bound, per cent of control: 6.5%
PDGFRA (human)
  kinase still bound, per cent of control: 100%
MAPK3 (human)
  kinase still bound, per cent of control: 0.75%
PIK3C2B (human)
  kinase still bound, per cent of control: 100%
GSK3B (human)
  kinase still bound, per cent of control: 84%
CDK17 (human)
  kinase still bound, per cent of control: 100%
EPHA1 (human)
  kinase still bound, per cent of control: 100%
[2]
  kinase still bound, per cent of control: 100%
DAPK2 (human)
  kinase still bound, per cent of control: 64%
NEK2 (human)
  kinase still bound, per cent of control: 100%
CAMK2G (human)
  kinase still bound, per cent of control: 71%
[3]
  kinase still bound, per cent of control: 100%
CHEK2 (human)
  kinase still bound, per cent of control: 23%
AURKC (human)
  kinase still bound, per cent of control: 100%
ULK3 (human)
  kinase still bound, per cent of control: 100%
WEE1 (human)
  kinase still bound, per cent of control: 100%
MARK1 (human)
  kinase still bound, per cent of control: 100%
CDK3 (human)
  kinase still bound, per cent of control: 85%
EPHA3 (human)
  kinase still bound, per cent of control: 100%
PIM3 (human)
  kinase still bound, per cent of control: 100%
STK11 (human)
  kinase still bound, per cent of control: 100%
SRPK1 (human)
  kinase still bound, per cent of control: 100%
TEK (human)
  kinase still bound, per cent of control: 100%
[1]
  kinase still bound, per cent of control: 19%
EPHA2 (human)
  kinase still bound, per cent of control: 100%
DAPK1 (human)
  kinase still bound, per cent of control: 60%
EPHB3 (human)
  kinase still bound, per cent of control: 100%
FGFR1 (human)
  kinase still bound, per cent of control: 100%
FGFR4 (human)
  kinase still bound, per cent of control: 100%
TSSK1B (human)
  kinase still bound, per cent of control: 92%
MAP4K2 (human)
  kinase still bound, per cent of control: 97%
EGFR (human)
  kinase still bound, per cent of control: 4.1%
MKNK1 (human)
  kinase still bound, per cent of control: 53%
MAP2K2 (human)
  kinase still bound, per cent of control: 94%
AKT1 (human)
  kinase still bound, per cent of control: 100%
PTK6 (human)
  kinase still bound, per cent of control: 10%
LIMK1 (human)
  kinase still bound, per cent of control: 100%
CDK5 (human)
  kinase still bound, per cent of control: 96%
KDR (human)
  kinase still bound, per cent of control: 100%
